Laboratory results taken from patent US8889130B2, “Treatment of osteoarthritis and pain” (Abbvie Inc., priority 2011, dated 2014).

Legend:
[1] = test system: mice (male CD1); assay: L5/L6 spinal nerve ligation (SNL) model of neuropathic pain, mechanical allodynia; type: in vivo; conditions: mAbs 900 μg/mouse each, gabapentin 100 mg/kg, 1 hour pretreatment
Experimental: Whether an anti-IL-1α and anti-IL-1β mAb combination therapy would produce efficacy in neuropathic pain conditions was examined in an L5/L6 spinal nerve ligation (SNL) model in mice (male CD1). Testing was performed six days after SNL surgery, 24 and 72 hours after animals were treated with mAb combination (900 μg/mouse of each mAb). […] The magnitude of efficacy (% MPE) was 72.20±14.39% at 24 hours and 80.62±12.33% at 72 hours (FIG. 19).

[2] = test system: female BALB/c mice; assay: CFA (Complete Freund's Adjuvant) inflammatory pain model, mechanical allodynia (von Frey); type: in vivo, mouse; conditions: 48 hours after CFA, diclofenac 30 mg/kg
Experimental: The CFA (Complete Freund's Adjuvant) inflammatory pain model was used to test whether the anti-IL-1α and anti-IL-1β mAb combination would produce efficacy against a mechanical endpoint. Therefore, mechanical allodynia was assessed using von Frey monofilaments in animals (female BALB/c mice) 48 hours after they were injected intraplantar with CFA. […] Separate groups of animals were treated either with IgG isotype control or a combination of anti-IL-1α and anti-IL-1β mAbs (900 μg/mouse of each mAb) 30 hours after CFA injection. […] The magnitude of efficacy (% MPE) was 65.51±12.35% (FIG. 17B).

[3] = test system: mice (female BALB/c); assay: Mouse carrageenan-induced inflammatory pain model, thermal hyperalgesia (paw withdrawal latency); type: in vivo; conditions: for thermal hyperalgesia / antinociceptive effect: Example 8, 48 and 96 hours, single mAb 900 μg, diclofenac 30 mg/kg; for paw withdrawal latency, carrageenan (injured) paw: mAbs 900 μg each at 30 hours, diclofenac 30 mg/kg p.o. 60 minutes before testing
Experimental: To evaluate whether neutralization of IL-1α and IL-1β produces antinociceptive effects in inflammatory pain conditions, anti-IL-1α and anti-IL-1β mAbs were evaluated for the ability to reverse established pain in the mouse carrageenan paw model of nociceptive pain.
The efficacy of the anti-IL-1α and anti-IL-1β mAbs was evaluated when administered alone or in combination in the mouse carrageenan model (FIG. 15). At 30 hours after intraplantar carrageenan injection: 900 μg of either anti-IL-1α mAb, anti-IL-1β mAb, or their combination were administered in different groups of mice. Thermal hyperalgesia testing was performed 48 and 96 hours after carrageenan. […] The antinociceptive effect in 900 μg combination group was 53±7% at 48 hours, and 82±11% at 96 hours.
Different groups of animals were treated either with vehicle or a combination of anti-IL-1α and anti-IL-1β mAbs (100, 300, or 900 μg/mouse of each mAb) 30 hours after carrageenan injection. […] The antinociceptive effect in 900 μg treatment group was 70±9% at 48 hours, and 62±4% at 96 hours. Diclofenac (30 mg/kg), a non-steroidal, anti-inflammatory analgesic, was included as positive control in the study, and it increased the mean paw withdrawal latency of the injured paw to 7.01±0.58 s at 48 hours and 7.48±0.34 s at 96 hours when administered p.o. 60 minutes before testing (p<0.01 at both time points).

[4] = test system: human OA patients; conditions: literature (Cohen et al., ACR 2007); cited from earlier work
[5] = test system: DMM mice; assay: DMM model of osteoarthritis, mechanical allodynia (paw withdrawal threshold); type: in vivo, mouse; conditions: Example 5 (FIG. 12); 6 mg/kg ip twice per week for four weeks; day 28
Experimental: The DMM model also generates measurable pain in the mice. […] The efficacy of anti-IL-1α/β therapy was studied in the DMM animal model.
The potential of anti-IL-1 therapy to ameliorate pain was tested in the DMM mouse model of OA in terms of mechanical allodynia. Dosing of the combination of IL-1α and IL-1β mAbs was initiated on the day of the surgery and was repeated twice a week for 5 weeks. Animals were treated with PBS vehicle alone, with an IgG isotype control, or with a combination of anti-IL-1α and anti-IL-1β mAbs (at a dose of 6 mg/kg for each mAb). Animals were tested weekly for paw withdrawal threshold. […] This reduction in pain was seen as early as week 1 following treatment (data not shown).
To evaluate the effect of IL-1 therapy in established pain, animals in the IgG control group with established OA and mechanical allodynia were treated on day 35 with the combination of anti-IL-1α and anti-IL-1β monoclonal antibodies and the paw withdrawal threshold was tested 24 hours later (day 36).
The potential of anti-IL-1 therapy to ameliorate pain in the DMM mouse model of OA (see, above) in terms of mechanical allodynia was further evaluated. Dosing of the combination of IL-1α and IL-1β mAbs was initiated on the day of the surgery and was repeated twice a week for 4 weeks. […]

[6] = test system: Male SV129 mice; assay: Destabilization of medial meniscus (DMM) model of osteoarthritis, cartilage degeneration (Chambers scores); type: in vivo, mouse; conditions: Example 3.3.6 (FIG. 7); 8 weeks; mAbs 6 mg/kg alone or in combination
Excerpt: (§1) Male SV129 mice weighing approximately 30 grams, housed 5/cage, were anesthetized on Day 0 with ketamine/xylazine cocktail, administered intraperitoneally (ip), and then the medial collateral ligament was exposed by blunt dissection, and transected to reflect the meniscus toward the femur. The joint space was closed with 8-0 vicryl suture. The skin was closed with wound glue. For sham surgeries, a vertical skin incision was made over the medial aspect of the knee and the joint capsule was opened. The capsule was closed with 8-0 vicryl suture and the skin was closed with wound glue. Groups of animals were then treated with intraperitoneal (ip) injections of antibody or vehicle according to the study design table below. Two sex-matched, age-matched, and strain-matched naïve mice were also included in the study. Animals were euthanized after 8 weeks of treatment, and knee joints were harvested in 10% neutral buffered formalin.
Formalin-fixed samples were decalcified, and specimens were sectioned in the frontal plane into 15 step sections each. Each section was approximately 6 μm thick, and step sections were separated by 70 μm. All slides were stained with toluidine blue (T. Blue). Slides were assessed according to the Chambers method (Chambers et al. (2001) Arthritis Rheum 44:1455-65) for cartilage degeneration (see below) by a board-certified veterinary pathologist. Each of the four cartilage surfaces, the medial femoral condyle (MFC), the medial tibial plateau (MTP), the lateral femoral condyle (LFC), and the lateral tibial plateau (LTP), was scored from 0-6 according to the scale in the table below.
as §1, with “8-0 vicryl suture, and the” for “8-0 vicryl suture and the”, “injections of anti-mIL-1α monoclonal antibody, anti-mIL-1β (alone or in combination), mIL-1α/βDVD-Ig binding protein, or vehicle” for “injections of antibody or vehicle”, “design table below (Table 24). Animals were” for “design table below. Two sex-matched, age-matched, and strain-matched naïve mice were also included in the study. Animals were”, “weeks of treatment and knee” for “weeks of treatment, and knee”
Male SV129 mice weighing approximately 30 grams had the medial collateral ligament exposed by blunt dissection, and transected to reflect the meniscus toward the femur. The joint space was closed with 8-0 vicryl suture. The skin was closed with wound glue. For sham surgeries, a vertical skin incision was made over the medial aspect of the knee and the joint capsule was opened. The capsule was closed with 8-0 vicryl suture, and the skin was closed with wound glue. Groups of animals were then treated per os (po) or via intraperitoneal (ip) injections of vehicle or treatments according to the study design table below. Three sex-matched, age-matched, and strain-matched naïve mice were also included in the study. Animals were euthanized after 4 weeks of treatment, and knee joints were harvested in 10% neutral buffered formalin.

[7] = test system: male DBA-1 mice; assay: Collagen-induced arthritis mouse model (rheumatoid arthritis); type: in vivo; conditions: therapeutic mode; 1-3 mg/kg intraperitoneally every other day after disease onset
Experimental: The therapeutic effects of anti-IL-1α, anti-IL-1β, combined anti-IL-1α/anti-IL-1β, and murine IL-1α/β DVD4-Ig, were evaluated in a collagen-induced arthritis mouse model well known in the art. Briefly, male DBA-1 mice were immunized with bovine type II collagen in CFA at the base of the tail. The mice were boosted with Zymosan intraperitoneally (i.p) at day 21. After disease onset at day 24-27, mice were selected and divided into separate groups of 10 mice each. […] To neutralize IL-1, mice were injected every other day with 1-3 mg/kg of anti-IL-1α mAb, anti-IL-1βmAb, combination of anti-IL-1α and anti-IL-1β mAbs, or murine IL-1α/β DVD4-Ig intraperitoneally. Mice were carefully examined three times a week for the visual appearance of arthritis in peripheral joints, and scores for disease activity determined.

NCC1(CC(=O)O)CCCCC1 [gabapentin]
paw withdrawal threshold (von Frey) ([1]; at 24 hours): 0.858 ± 0.077 g | paw withdrawal threshold (von Frey) ([1]; at 72 hours): 1.138 ± 0.096 g

O=C(O)Cc1ccccc1Nc1c(Cl)cccc1Cl [Diclofenac]
paw withdrawal threshold, CFA injected paw ([2]; mAbs 900 μg/mouse each 30 hours after CFA, 1 hour pretreatment): 0.359 ± 0.088 g | magnitude of efficacy (% MPE) ([2]; mAbs 900 μg/mouse each): 64.51±10.20% | thermal hyperalgesia / antinociceptive effect [3]: significant attenuation of thermal hyperalgesia | paw withdrawal latency, carrageenan (injured) paw ([3]; Example 9 (FIG. 16A), at 48 hours): 7.01 ± 0.58 s | paw withdrawal latency, carrageenan (injured) paw ([3]; Example 9 (FIG. 16B), at 96 hours): 7.48 ± 0.34 s

Anakinra: IL-1 receptor antagonist
efficacy in OA trials with respect to symptoms and chondroprotection [4]: some efficacy

B1: 9H10: mouse anti-mouse IL-1α monoclonal antibody (clone 9H10) from IL-1α/β double KO mice (antibody, V domains shown)
VH: QVILKESGPGILQPSQTLSLTCSFSGFSLSTYGTAVNWIRQPSGKGLEWLAQIGSDDRKLYNPFLKSRITLSEDTSNSQVFLKITSVDTEDSATYYCANGVMEYWGLGTSVTVSS
VL: SIVMTQTPKFLLVSAGDRVTITCKASQSVNHDVAWYQQMPGQSPKLLIYFASNRYTGVPDRFTGSGYGTDFTFTISTVQAEDLAVYFCQQDYSSPYTFGGGTKLEIKR
modifications: heavy chain variable domain of 9H10; light chain variable domain of 9H10
notes: mouse anti-mouse IL-1α monoclonal antibody (clone 9H10) from IL-1α/β double KO mice
paw withdrawal threshold (allodynia) [5]: allodynic (painful) | mean sum Chambers scores and mean maximum Chambers scores (cartilage degeneration) [6]: not statistically significant | thermal hyperalgesia / antinociceptive effect [3]: no significant antinociceptive effect | reduction in mean arthritis score compared to control group [7]: 10%
